Legend:
[1] = tested on: COVID-19 RNA G4s (SG1 and SG2); test: UV-Vis absorption spectra of quinacrine with RNA G4; type: binding, SARS-COV-2; conditions: SG1, SG2 at different concentrations; 10 mM Tris-HCl pH 7.6, 5 mM NaCl, 50 mM KCl
Excerpt: UV-Vis spectroscopy is the most common and convenient technique to study the interaction between small molecules with nucleic acids, including RNA G4. Molecules containing aromatic chromophore groups interact with RNA G4, and the molecular interaction can be studied based on the changes in the absorption spectra. The hypochromic effect is a spectral property for RNA G4-drug interactions that are closely related to the G4 structure. […] With the addition of G4 RNA, the intensity at both 350 nm and 450 nm bands decreased, inducing the hypochromicity at these wavelengths (FIG. 7). This can be attributed to the decrease in the number of chromophores in solution due to the interaction of quinacrine with RNA G4.

COVID-19 [2] = test: Intravenous administration of quinacrine to a COVID-19 patient (Example 2); type: in vivo, human
Experimental: The following example describes treatment strategies for COVID-19 involving an intravenous administration of Quinacrine to a patient.
A person wakes up one morning with a fever of 102.4° F. and a tightness in their chest. They are an essential hospital worker and so believes they may have contracted COVID-19. Therefore, they call their primary care physician to determine their next steps. The primary care physician decides that they should be brought in for testing since they are at a higher risk for complications because the patient has severe asthma. The person gets a nose swab for the test. The doctor mentions that they will call the patient with the results as soon as possible. For now, the person is told to self-isolate and to monitor any changes in symptoms, calling if things get progressively worse. Quickly the person's condition deteriorates, and they begin to experience difficulty breathing and pressure in their chest. The doctor admits them to the ICU of the hospital because they require supplemental oxygen to maintain their oxygen levels. Shortly after being admitted to the ICU, the result of their test comes back positive for COVID-19. The ICU doctor gives the patient an intravenous injection of 200 mg initially every 6 hours for 5 doses, followed by 100 mg 3 times a day for 6 days. Alternatively, 100 mg is administered via IV infusion 3 times a day for 5 to 7 days. […]

COVID-19 [3] = test: Oral administration of quinacrine to a COVID-19 patient (Example 3); type: in vivo, human
Experimental: The following example describes treatment strategies for COVID-19 involving an oral administration of Quinacrine.
Recently, a COVID-19 test for a person has come back positive. […] After a week at the hospital, the patient's symptoms show no signs of improvement. The doctors at the hospital prescribe to the patient an initial 200 mg dose orally every 6 hours for 5 doses, followed by 100 mg 3 times a day for 6 days. Alternatively, 100 mg is orally administered to the patient after meals 3 times a day for 5 to 7 days. After a week and a half of taking quinacrine daily, the patient's symptoms improve. […] The patient is released from the hospital and is told to stay in self-isolation for another week.

SARS-COV-2 = test: Cytopathic effect (CPE) assay against COVID-19 in Vero E6 cells, neutral red uptake; type: cell-based; conditions: 2 μg/mL quinacrine, 120 h p.i., at the 30% cytotoxic concentration
Experimental: The cytoprotective effect of quinacrine was determined by the cell viability, which is measured by the uptake of neutral red dye at A540.
In this study, the antiviral efficiency of quinacrine was evaluated against COVID-19 in vitro. Antiviral activity was evaluated using a cytopathic effect (CPE) assay, which determines the ability of the compound to prevent viral CPE in African green monkey kidney cells, Vero E6. Four dilutions of the test compound were evaluated, and the effective antiviral concentration was determined by regression analysis. The cytotoxicity of the test compound was determined in parallel by the neutral red cell cytotoxicity assay, a common method used to detect cell viability or drug cytotoxicity. CPE was determined by the uptake of neutral red dye. Quinacrine protects more than 80% of the infected cells from the cytopathic effects caused by COVID-19 at 2 μg/mL concentration (FIG. 8). The tissue distribution of quinacrine was investigated in a previous study by treating mice daily by oral gavage with 30 mg/kg of quinacrine (35% v/v ethanol in distilled water) dissolved in 100 μL total volume for 28 days.

RET G-quadruplex = test: Taq DNA polymerase stop assay; type: biochemical; conditions: quinacrine 0, 0.5, 1.0 and 2.0 μM
Experimental: DNA polymerase stop assay was performed at increasing concentrations of each drug. Lanes M represents the di-deoxy sequencing G-reactions with the same template, which serves as the marker to locate the exact stop site. Bands P, S, and F represent the position of the free primer, stop products by G-quadruplex structures, and full-length products, respectively, on the gel.
The G4-stabilizing effect of quinacrine was validated with the RET G4 as a model G4 using a DNA polymerase stop assay and CD spectroscopic studies. In this assay, the ligand mediated stabilization of the G-quadruplex structure arising from the DNA template prevents the progression of the Taq DNA polymerase during primer extension.

COVID-19 and influenza = test: Oral administration of quinacrine for prevention of COVID-19 and influenza (Example 5); type: in vivo, human; conditions: 300 mg orally twice a day for a month
Experimental: The following example describes prevention strategies for COVID-19 and influenza involving an oral administration of Quinacrine.
A person wants to prevent getting sick during the upcoming winter season. Therefore, they schedule an appointment with their primary care physician to discuss their options. At the appointment, the doctor recommends taking a 300 mg pill of quinacrine orally twice a day for the next month.

[4] = tested on: Influenza A/California/07/2009 (H1N1); test: Cytopathic effect (CPE) assay against Influenza A (H1N1), neutral red uptake; type: cell-based, Influenza A virus; conditions: 2 μg/mL quinacrine; three days incubation
[5] = mice; 30 mg/kg daily oral gavage; after 28 d of treatment; cited from earlier work
RET G4 = test: CD spectroscopy and CD melting curve of RET G4; type: binding
Experimental: In both graphs in FIG. 6, at the 260 wavelength lines in descending order are 20° C., 30° C., 40° C., 50° C., 60° C., 70° C., 80° C., and 90° C.
Quinacrine was further investigated as to whether it stabilizes the RET G4 structure using circular dichroism (CD) spectroscopic analysis. […] Next, the thermal stability of the G-quadruplex structure was examined by monitoring the CD melting curve in the absence and presence of quinacrine (5 equivalent) at increasing temperatures.

In the case of CCN(CC)CCCC(C)Nc1c2ccc(Cl)cc2nc2ccc(OC)cc12 (centres unmarked) [quinacrine], the “absorbance intensity at 350 nm and 450 nm bands on addition of G4 RNA” value [1] is reported as “decreased”, the side effects (COVID-19 [2]; intravenous quinacrine, patient) is reported as “No side effects” and the clinical outcome (COVID-19 [2]; person, intravenous 200 mg every 6 hours for 5 doses, then 100 mg 3 times a day for 6 days, after a week) is reported as “tests negative for COVID-19”. For the same compound, the side effects (COVID-19 [3]; oral quinacrine, patient) was “No side effects”, the clinical outcome (COVID-19 [3]; person, oral 200 mg every 6 hours for 5 doses, then 100 mg 3 times a day for 6 days) was “tests negative for COVID-19” and the “reduction of CPE due to SARS-COV-2 / protection of infected cells from cytopathic effects” value (SARS-COV-2) was “more than 80%”. For the same compound, the “amount of arrested product (stop product by G-quadruplex)” value (RET G-quadruplex) was “dose-dependent increase”, the side effects (COVID-19 and influenza) was “No side effects” and the prevention outcome (COVID-19 and influenza; person) was “without getting sick”. The “protection of infected cells from cytopathic effects caused by Influenza A (H1N1)” value [4] was “more than 80%”, the “mean concentration in whole blood” value [5] was 470 ng/mL and the mean lung concentration [5] was 2600 ng/mL. For the same compound, the “positive CD peak at 262 nm (parallel G-quadruplex structure)” value (RET G4; in the presence of quinacrine) was “not affected” and the “melting temperature (Tm) of the RET G4 structure” value (RET G4; quinacrine 5 equivalent, increasing temperatures) was “significantly increased”.

— US20240391876A1 (priority 2021, published 2024)
